Experimental data reported in patent US20170008927A1, “ARTIFICIAL CATALYST SYSTEM SUBSTITUTABLE FOR IN VIVO ACYLATION FUNCTION” (The University of Tokyo, priority 2014, published 2017).

Legend:
Format in all cases: cell-based, human
[1] = tested on: MCF7 cells; assay: Intracellular localization of FITC compounds, fluorescence microscope, MCF7 cells
Procedure: After compounds having FITC were added to the cells adhering on a glass coverslip, the cells were cultured, washed with PBS, fixed with 3.7% formaldehyde for 10 minutes, and washed with PBS twice.

[2] = tested on: MCF7 cells; assay: Protein acetylation levels in treated MCF7 cells (chromosome and cytoplasm fractions), western blotting; conditions: FIG. 6 comparison
Procedure: (§1) Hela cells and MCF7 cells were cultured using Dulbecco's modified Eagle's Medium (DMEM) media supplemented with 10% fetal bovine serum, 100 U/ml of penicillin, and 100 U/ml of streptomycin. The cells were cultured at 37° C. in the presence of 5% CO2.
(§2) The cell fractionation was carried out as follows. Approximately 10^6 cells were detached from a culture dish by a trypsin treatment. After washed with PBS, the cell pellets were suspended in a cooled, cell lysis buffer [50 mM Tris (pH=7.5), 300 mM NaCl, 0.3% Triton X-100, protease inhibitor cocktail, and 1 mM PMSF], and placed on ice for 30 minutes. After the centrifugation (4° C., 1500 rpm, 2 minutes), the supernatant was collected as a cytoplasm fraction. Meanwhile, the pellets were suspended in a cell lysis buffer containing 2 mM MgCl2 and Benzonase (Novagen, 71206), and placed on ice for 30 minutes. Then, 4 mM EDTA was added thereto to stop the reaction. After the centrifugation (4° C., 15000 rpm, 15 minutes), the supernatant was collected as a chromosome fraction.
(§3) Proteins were separated on a 4-20% SDS-PAGE gel, and transferred to a PVDF membrane, followed by blocking with 5% skim milk suspended in TBST for the reaction between the PVDF membrane and primary antibodies. The primary antibodies used were as follows. Anti-Histone H3 (acetyl K122) antibody (ab33309, Abcam), Acetylated-Lysine antibody (#9441, Cell Signaling), Anti-Histone H3 (acetyl K56) antibody (ab76307, Abcam), Anti-acetyl Histone H3 (Lys115) (#07-934, Millipore), Anti-P53 (DO-1) (sc-126, Santa cruz), Anti-Histone H3 (acetyl K9) antibody (ab4441, Abcam), Anti-Histone H3 (acetyl K14) antibody (ab52946, Abcam), Anti-Acetyl-Histone H4 (Ac-Lys16) (H9164, Sigma), Anti-Acetyl-Histone H4 (Ac-Lys5) (SAB4500307, Sigma), anti-acetyl tubulin (T6793, Sigma), Anti-p21/WAF1/Cip1 Antibody (05-655, Millipore), Anti-p27 (Kip1) (04-240, Millipore). […]

[3] = tested on: hTERT RPE-1 cells; assay: Protein acetylation levels in treated hTERT RPE-1 normal cells, western blotting; conditions: FIG. 6 comparison
Procedure: as §2
Proteins were separated on a 4-20% SDS-PAGE gel, and transferred to a PVDF membrane, followed by blocking with 5% skim milk suspended in TBST for the reaction between the PVDF membrane and primary antibodies. The primary antibodies used were as follows. Anti-Histone H3 (acetyl K122) antibody (ab33309, Abcam), Acetylated-Lysine antibody (#9441, Cell Signaling), Anti-Histone H3 (acetyl K56) antibody (ab76307, Abcam), Anti-acetyl Histone H3 (Lys115) (#07-934, Millipore), Anti-P53 (DO-1) (sc-126, Santa cruz), Anti-Histone H3 (acetyl K9) antibody (ab4441, Abcam), Anti-Histone H3 (acetyl K14) antibody (ab52946, Abcam), Anti-Acetyl-Histone H4 (Ac-Lys16) (H9164, Sigma), Anti-Acetyl-Histone H4 (Ac-Lys5) (SAB4500307, Sigma), anti-acetyl tubulin (T6793, Sigma), Anti-p21/WAF1/Cip1 Antibody (05-655, Millipore), Anti-p27 (Kip1) (04-240, Millipore). After washing with TBST, the PVDF membrane was treated with a chemilluminescent detection reagent Luminata Forte Western HRP Substrate (Millipore), and the detection was performed using ImageQuant LAS 4000 (GE healthcare life sciences).
MCF7 cells, HeLa cells, and hTERT RPE-1 (hereinafter, RPE-1) cells which are normal cells were treated with an HDAC inhibitor (SAHA). […] On the other hand, there was no change in the acetylation of K56 present in the H3 globular region (FIG. 6).

[4] = tested on: Hela cells; assay: Protein acetylation levels in treated HeLa cells (chromosome and cytoplasm fractions), western blotting; conditions: FIG. 6 comparison
Procedure: as §1, §2, §3

| Compound | intracellular localization (FITC signal) [1] | acetylation of K56, H3 globular region [2] | acetylations of lysines in the tail regions of histones H3 and H4 [2] | tubulin acetylation in the cytoplasm [2] | acetylation of K56, H3 globular region [3] | acetylations of lysines in the tail regions of histones H3 and H4 [3] | tubulin acetylation in the cytoplasm [3] | acetylation of K56, H3 globular region [4] | acetylations of lysines in the tail regions of histones H3 and H4 [4] | tubulin acetylation in the cytoplasm [4] |
| --- | --- | --- | --- | --- | --- | --- | --- | --- | --- | --- |
| CC(=O)N(OCc1cn(CCOCCOCCOc2cc(C(=O)NCC(=O)N[C@@H](CCCNC(=N)N)C(=O)NC(CCCNC(=N)N)C(=O)N[C@@H](CCCNC(=N)N)C(=O)NC(CCCNC(=N)N)C(=O)N[C@@H](CCCNC(=N)N)C(=O)NC(CCCNC(=N)N)C(=O)N[C@@H](CCCNC(=N)N)C(=O)NC(CCCNC(=N)N)C(N)=O)cc(OCCOCCOCCn3cc(CON(C(C)=O)C(C)=O)nn3)c2OCCOCCOCCn2cc(CON(C(C)=O)C(C)=O)nn2)nn1)C(C)=O (stereo partly shown) [Compound 3NMD-8R] | successfully localized in the nucleus and the chromosomes | – | – | – | – | – | – | – | – | – |
| O=C(CCCCCCC(=O)Nc1ccccc1)NO [SAHA] | – | no change | significantly enhanced | significantly enhanced | no change | significantly enhanced | significantly enhanced | no change | significantly enhanced | significantly enhanced |
